The text below walks through data of PMC10166914, “GTN057, a komaroviquinone derivative, induced myeloma cells' death in vivo and inhibited c‐MET tyrosine kinase” (Cancer Medicine, 2023).

Usually Cmax stands for the highest concentration seen after dosing. What is called Tmax is the time from dosing to the highest level.

In series [1] the test system is EGF stimulated ERK1/2, STAT3, AKT1 phosphorylation. The series is described as follows: Western blot, EGF-stimulated signaling in A549 cells. In kind it is cell-based, human. Particulars: EGF stimulation. On the procedure: (§1) MM cells (4 × 10^5 cells/mL) were incubated with 0–20 μM GTN057 for 12 h. The cells were then co‐cultured with 0–50 ng/mL of hepatocyte growth factor (HGF) (PeproTech, London) or 0–20 ng/mL of fibroblast growth factor (FGF)‐2 (PeproTech) with 1 unit/mL of heparin in RPMI containing 4% dialyzed FCS (Gibco) for the KMS11 and KMS34 cells and 10% dialyzed FCS for the KMS21 cells for 15 min at RT (room temperature). A549 cells were co‐cultured with 0–50 ng/mL of epidermal growth factor (EGF) (PeproTech) in Eagle's MEM containing 4% dialyzed FCS for 15 min at RT. […]
(§2) The protein concentrations were measured using a BCA Protein Assay Kit (Thermo Fisher Scientific). […]
(§3) Antibodies against phospho‐STAT3 (Tyr705), phospho‐Akt (Ser473), p44/42 MAPK (Erk 1/2), phosphor‐p44/42 MAPK (Thr202/Tyr 204), and phospho‐c‐Met (Tyr1234/1235) (all from Cell Signaling Technology, Danvers, MA) or STAT3, Akt, c‐Met, and β‐actin (all from Santa Cruz Biotechnology, Santa Cruz, CA) or phospho‐c‐Met (Tyr1230/1234/1235) (Biosource, Camarillo, CA for KMS34 cells in Figure 3A) were each used at 1:1000 dilution. […] The Western blotting signals were detected by enhanced ECL chemiluminescence (Amersham). The signal intensity of each band was quantified densitometrically with ImageJ software (ver. 1.48, U.S. National Institutes of Health).
(A western blot detects proteins with antibodies after separation by electrophoresis.)

Series [2] has as its system bone marrow cells from mice. Also on record: method as in PMID 28882484. To be noted: cited from earlier work.
The subject of series [3] is ERK1/2. The series is described as follows: Western blot, dose-dependent inhibition of ERK1/2 phosphorylation in KMS34 cells. It counts as cell-based. Particulars: Homo sapiens, KMS-34, Western blot densitometry, read-out: 50% inhibition of the phosphorylation of ERK1/2. On the procedure: as §1, §2, §3
The test system of series [4] is HGF/c-MET signaling. The series is described as follows: Western blot, HGF-stimulated signaling in KMS11, KMS21 and KMS34 cells. To be noted: 20 μM GTN057. In kind it is cell-based, human. As for the experimental part: as §1, §2, §3
In series [5] the target is T1, c-MET (Homo sapiens, UniProt P08581).
T1 construct: endogenous in cells; host or cells: KMS34 multiple myeloma cells
T1 sequence (P08581 25-1390): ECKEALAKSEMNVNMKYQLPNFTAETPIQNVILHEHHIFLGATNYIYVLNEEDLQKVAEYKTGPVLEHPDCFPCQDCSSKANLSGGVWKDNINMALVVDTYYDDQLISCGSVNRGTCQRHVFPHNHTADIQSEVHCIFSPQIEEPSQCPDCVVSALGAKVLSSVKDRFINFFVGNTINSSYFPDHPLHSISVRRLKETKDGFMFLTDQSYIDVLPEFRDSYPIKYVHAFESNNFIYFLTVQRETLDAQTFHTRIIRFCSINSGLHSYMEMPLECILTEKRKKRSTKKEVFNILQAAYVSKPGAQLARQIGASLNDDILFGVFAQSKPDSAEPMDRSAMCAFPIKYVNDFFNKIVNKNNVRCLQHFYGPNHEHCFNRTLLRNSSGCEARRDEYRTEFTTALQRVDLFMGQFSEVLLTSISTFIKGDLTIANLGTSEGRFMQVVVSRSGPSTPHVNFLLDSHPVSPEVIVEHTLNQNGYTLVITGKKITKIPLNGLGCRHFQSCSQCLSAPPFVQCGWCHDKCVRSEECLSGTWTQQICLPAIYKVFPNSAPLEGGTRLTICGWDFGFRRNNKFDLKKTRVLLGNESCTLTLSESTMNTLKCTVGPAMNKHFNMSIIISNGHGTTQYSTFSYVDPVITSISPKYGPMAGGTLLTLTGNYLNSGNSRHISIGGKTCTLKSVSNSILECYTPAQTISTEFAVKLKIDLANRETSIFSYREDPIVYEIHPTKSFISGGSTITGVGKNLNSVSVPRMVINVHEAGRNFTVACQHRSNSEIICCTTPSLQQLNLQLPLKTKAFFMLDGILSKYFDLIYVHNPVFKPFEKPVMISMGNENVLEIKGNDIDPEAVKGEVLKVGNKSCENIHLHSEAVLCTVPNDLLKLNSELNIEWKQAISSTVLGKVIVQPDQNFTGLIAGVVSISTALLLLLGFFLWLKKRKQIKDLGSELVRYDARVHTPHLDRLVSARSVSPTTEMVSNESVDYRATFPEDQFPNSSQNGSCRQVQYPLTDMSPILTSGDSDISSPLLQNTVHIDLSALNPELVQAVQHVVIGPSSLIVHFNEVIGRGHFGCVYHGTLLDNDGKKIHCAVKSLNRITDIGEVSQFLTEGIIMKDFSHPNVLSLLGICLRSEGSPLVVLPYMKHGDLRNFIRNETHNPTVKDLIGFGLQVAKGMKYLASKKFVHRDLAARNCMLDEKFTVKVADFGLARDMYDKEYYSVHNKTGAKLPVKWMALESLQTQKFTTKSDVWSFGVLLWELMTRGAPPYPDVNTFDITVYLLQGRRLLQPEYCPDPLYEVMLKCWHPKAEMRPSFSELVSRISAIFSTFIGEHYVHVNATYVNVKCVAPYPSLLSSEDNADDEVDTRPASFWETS
Put plainly: Western blot, dose-dependent inhibition of c-MET phosphorylation in KMS34 cells. In kind it is cell-based. To be noted: Western blot densitometry, read-out: 50% inhibition of the phosphorylation of c-MET. As for the experimental part: as §1, §2, §3

Series [6] is described as follows: Pharmacokinetic study, LC-MS/MS of plasma. In kind it is in vivo, ICR mice. On the procedure: For the pharmacokinetic study, 0 or 100 mg/kg of GTN057 (1% Tween® 80 + 10% DMSO in saline) was injected (i.p.) into male 5‐week‐old ICR mice. Peripheral blood samples were taken using heparinized hematocrit tubes from the tail vein of each mouse at 0, 15, and 30 min and 1, 2, 4, and 24 h. The blood samples were applied to centrifugation (1100 × g, 15 min at 4°C) and we then collected the supernatant plasma. […] (Wako) and MeOH (Kanto, Tokyo) for LC–MS/MS (liquid chromatography–tandem mass spectrometry) measurements were mixed in a 1:1 ratio, and verapamil hydrochloride (an internal standard substance) was dissolved to the final concentration of 120 ng/mL to prepare a deproteinizing agent. We diluted the blood samples four times with this deproteinizing agent. After 15 min on ice, each deproteinized plasma sample was centrifuged (9100 × g, 10 min, 4°C). The supernatants were collected and used for the LC–MS/MS analyses.
All compounds including GTN057 were analyzed with a mass spectrometer (AB SCIEX) coupled to an HPLC (high‐performance liquid chromatography) system (Shimadzu). The peptides were separated with the use of an Atlantis® dC18, 3‐μm, 100 Å column (Waters). The solvent composition was 15% for solution A (100 mM CH3COONH4) and 85% for solution B (CH3OH). The HPLC measurement settings were as follows. Constant flow rate: 0.2 mL/min, column temperature: 40°C. The MS settings were: spray voltage, 5500 V; turbo heater temperature, 300°C.

Where [7] appears, read: male, mouse, ip, single i.p. injection 100 mg/kg, ICR mice, plasma.

Values joined by “and” are separate entries in the source; they are usually repeats but may differ in a detail not shown here. Equal values may be shown once.

Regarding `COc1c(OC(C)=O)c2c(c(O)c1C(C)C)C(=O)CC1C(C)(C)CCC[C@]1(O)C2` (stereo partly drawn) [GTN057], in series [1], the “ERK1/2, STAT3, AKT1 phosphorylation levels” value is given as “not altered”. The “Colony formation of bone marrow cells” value in series [2] (bone marrow cells from mice) was “did not inhibit the colony formation”. Besides, in series [2] (colony assay), the “Hematological toxicity in vitro” value is recorded as “negligible hematological toxicity”. Further, the IC50 was found to be 21.3 µM in series [3] and 35.9 µM in series [5]. For the same compound, the “Phosphorylation of ERK1/2, STAT3 and Akt1” value in series [4] (KMS11, KMS21, KMS34 cells, 50 ng/mL HGF) was “diminished”. The “Phosphorylation at y1234 y1235 of c-MET” value in series [4] (co-culture with HGF) was “abolished”. In addition, the Cmax in series [6] (setting [7]) was 790 ng/mL and 1.95 µM. Besides, the Tmax in series [6] (setting [7]) is 30 min. Further, in series [6] (plasma, LC-MS/MS, preliminary data), the Degradation in plasma entry is listed as “immediately dehydrated (m/z 387) or deacetylated (m/z 363) in plasma”. The compound further had a plasma disappearance half-time in series [6] (single i.p. injection 100 mg/kg, ICR mice) of 110 min. Moreover, the “Presence in blood at 24 h post-injection” value in series [6] (single i.p. injection 100 mg/kg, ICR mice, 24 h) was “almost completely disappeared”.
